Patent US11685716B2, “Plant growth inhibiting agent, and plant growth inhibiting method using same” (NATIONAL UNIVERSITY CORPORATION KUMAMOTO UNIVERSITY, priority 2017, dated 2023)

Assays:
thale cress = assay: Plant growth inhibition index, thale cress on agar medium in test tube (Evaluation 8, 9); assay type: in vivo, thale cress (Col-0, wild-type strain); parameters: key: 0: No effect; 1: Growth of the root part was inhibited 50% or less compared with non-treated area.; 2: Growth of the root part was inhibited 50% or more compared with non-treated area.; 3: Growth of the root part was substantially inhibited.; 4: Germination was inhibited; details: for Index: Concentration 200 μM, 8 days (Evaluation 9, Table 2)
Procedure: 0.44% (w/v) Mixed salts for Murashige and Skoog medium (SIGMA), 1% (w/v) sucrose, and 0.05% (w/v) MES were mixed, and pH of the solution was adjusted to pH 5.7 with potassium hydroxide. 1.5% (w/v) Agar was added to the mixture, which was sterilized at 120° C. in an autoclave for 20 minutes. The test compound and dimethylformamide containing 1.5% of polyoxyethylenesorbitan monolaurate for a control experiment, were added at this stage and blended. In addition, the compound was used by adjusting an addition concentration to 200 μM. Four ml each of the medium was dispensed in sterile glass test tube ([…] RIKA GLASS CO., LTD.) to prepare agar medium.
As a plant material, Col-0, which is a wild-type strain of thale cress, was used.
Seeds, after their surfaces were sterilized, were planted on the agar medium, and the growth of the plant was carried out in a plant incubator (CFH-405) under the conditions of an illuminance of 3 at 23° C. with constant light. The plants on the agar medium were grown for 8 days in the chamber.
The plant growth inhibition effect of the compounds was evaluated by conversion to indexes according to the following investigation criteria.

Japanese millet = assay: Seed treatment, plant growth inhibition index (Evaluation 11); assay type: in vivo; parameters: key: 0: No effect; 1: Growth of the root part was inhibited 50% or less compared with non-treated area.; 2: Growth of the root part was inhibited 50% or more compared with non-treated area.; 3: Growth of the root part was substantially inhibited.; 4: Germination was inhibited
Procedure: (§1) The compound of the present invention (2 mg) was dissolved in a 1.5% Tween dimethylformamide solution (100 μL) to use as a test chemical solution.
(§2) Eight mL of sterilized water was poured to a cherry cup (100Φ×45 mm) lined with a filter paper, subsequently 81.1 μL of the sterilized water was removed, and 81.1 μL of the test chemical solution was added such that a final concentration of the compound was 800 μM.
(§3) Further, cherry cups were similarly prepared such that a final concentration of the compound was 200 μM.
(§4) Seeds (Japanese millet: 3 grains, velvet leaf: 6 grains, Ragweed: 8 grains, morning glory: 2 grains) were planted on the filter paper in the cherry cups, followed by growing the plants in a thermostatic chamber at 25° C. under a light-dark cycle in which a light period is 12 hours and a dark period is 12 hours for 6 days.
(§5) In addition, with regards to the compound (9a) and the compound (9b), the plants were tested for 7 days.
(§6) Plant growth inhibition effects of the compounds were evaluated by conversion to indexes according to the following investigation criteria.

morning glory = assay: as above; assay type: in vivo; parameters: key: 0: No effect; 1: Growth of the root part was inhibited 50% or less compared with non-treated area.; 2: Growth of the root part was inhibited 50% or more compared with non-treated area.; 3: Growth of the root part was substantially inhibited.; 4: Germination was inhibited
Procedure: as §1, §2, §3, §4, §5, §6

velvet leaf [1] = assay: as above; assay type: in vivo; parameters: key: 0: No effect; 1: Growth of the root part was inhibited 50% or less compared with non-treated area.; 2: Growth of the root part was inhibited 50% or more compared with non-treated area.; 3: Growth of the root part was substantially inhibited.; 4: Germination was inhibited
Procedure: as §1, §2, §3, §4, §5, §6

Ragweed = assay: as above; assay type: in vivo; parameters: key: 0: No effect; 1: Growth of the root part was inhibited 50% or less compared with non-treated area.; 2: Growth of the root part was inhibited 50% or more compared with non-treated area.; 3: Growth of the root part was substantially inhibited.; 4: Germination was inhibited
Procedure: as §1, §2, §3, §4, §5, §6

southern crabgrass = assay: Spray treatment to stems and leaves, killing weed index (Evaluation 10); assay type: in vivo; details: 2000 g active ingredient per hectare, two weeks later
Procedure: (§7) POA allyl phenyl ether (4.1 parts by weight), POE-POP glycol (1 part by weight), POE sorbitan laurate (0.8 parts by weight), glycerin (2.6 parts by weight), dimethylformamide (65.9 parts by weight), N-methylpyrrolidone (5.1 parts by weight), cyclohexanone (15.4 parts by weight), and aromatic hydrocarbon (5.1 parts by weight) were mixed and dissolved to prepare an emulsion. The compounds of the present invention (4 mg) were dissolved in this emulsion (100 μL) to prepare a test emulsion. In addition, POA means “polyoxyalkylene”, POE means “polyoxyethylene”, and POP means “polyoxypropylene.”
(§8) Four hundred μL of the above test emulsion was diluted with 7600 μL of water to use as a test spray liquid.
(§9) Further, 400 μL of the above test emulsion was diluted with 1600 μL of a 1% Tween20 aqueous solution to use as a spray liquid for a small amount spray test.
(§10) For a comparative spray liquid, 53 μL of a 30% pendimethalin emulsion (Gogosan emulsion: manufactured by BASF Japan) as a control pesticides was diluted with 7947 μL of water. Further, for a comparative spray liquid for a small amount spray test, 53 μL of the 30% pendimethalin emulsion was diluted with 1947 μL of water.
(§11) A 150 cm^2 pot was filled with a soil, seeds of each purple amaranth, Japanese bristlegrass, southern crabgrass, and velvet leaf were sown on the surface layer, lightly covered with a soil and grown in a greenhouse. When each plant grew to a plant height of 2 to 9 cm, the test spray liquid was sprayed to the stem and leaf parts with a small spraying machine such that an active ingredient amount was 2000 g per hectare and a sprayed liquid amount was 1000 L per hectare.
(§12) Similarly, the test spray liquid for a small amount spray test was sprayed to the stem and leaf parts with a small spraying machine such that an active ingredient amount was 2000 g per hectare and a sprayed liquid amount was 250 L per hectare.
(§13) Two weeks later, the above-ground grass weight in non-treated areas and the above-ground grass weight in treated areas, by the weed, were measured to calculate a killing weed rate by the following calculating formula.
(§14) (a) Calculating Formula of Weeding Rate Killing weed rate (%)=(above-ground grass weight in non-treated area−above-ground grass weight in treated area)/(above-ground grass weight in non-treated area)×100 (b) Killing Weed Indexes
(§15) The obtained killing weed rates were evaluated, such that a killing weed index was “10” when a killing weed rate is 100%, as “9” when a killing weed rate is 99% to 90%, “8” when a killing weed rate is 89% to 80%, “7” when a killing weed rate is 79% to 70%, “6” when a killing weed rate is 69% to 60%, “5” when a killing weed rate is 59% to 50%, “4” when a killing weed rate is 49% to 40%, “3” when a killing weed rate is 39% to 30%, “2” when a killing weed rate is 29% to 20%, “1” when a killing weed rate is 19% to 10%, and “0” when a killing weed rate is 9% to 0%.

velvet leaf [2] = assay: as above; assay type: in vivo; details: 2000 g active ingredient per hectare, two weeks later
Procedure: as §7, §8, §9, §10, §11, §12, §13, §14, §15

purple amaranth = assay: as above; assay type: in vivo; details: 2000 g active ingredient per hectare, two weeks later
Procedure: as §7, §8, §9, §10, §11, §12, §13, §14, §15

Japanese bristlegrass = assay: as above; assay type: in vivo; details: 2000 g active ingredient per hectare, sprayed liquid amount 250 L/ha, two weeks later
Procedure: as §7, §8, §9, §10, §11, §12, §13, §14, §15

[3] = 200 μM, 6 days (9a, 9b: 7 days)
[4] = sprayed liquid amount 1000 L/ha

Structure (SMILES) | index on the plant growth inhibition effect (thale cress; 200 μM, 8 days (Evaluation 8)) | plant growth inhibition index, Japanese millet (Japanese millet; [3]) | plant growth inhibition index, Japanese millet (Japanese millet; 800 μM, 6 days) | plant growth inhibition index, Morning glory (morning glory; [3]) | plant growth inhibition index, Morning glory (morning glory; 800 μM, 6 days) | plant growth inhibition index, Velvet leaf (velvet leaf [1]; [3]) | plant growth inhibition index, Velvet leaf (velvet leaf [1]; 800 μM, 6 days) | plant growth inhibition index, Ragweed (Ragweed; [3]) | plant growth inhibition index, Ragweed (Ragweed; 800 μM, 6 days) | Index (thale cress) | killing weed index, Southern crabgrass (southern crabgrass; sprayed liquid amount 250 L/ha) | killing weed index, Southern crabgrass (southern crabgrass; [4]) | killing weed index, Velvet leaf (velvet leaf [2]; sprayed liquid amount 250 L/ha) | killing weed index, Velvet leaf (velvet leaf [2]; [4]) | killing weed index, Purple amaranth (purple amaranth; sprayed liquid amount 250 L/ha) | killing weed index, Purple amaranth (purple amaranth; [4]) | killing weed index, Japanese bristlegrass (Japanese bristlegrass)
O=C(O)c1cccn1OCc1ccc(Oc2ccccc2)cc1 [Compound 8f] | 3 | 3 (Growth of the stem and leave parts was inhibited 30% or more compared with non-treated area, or growth of the only root part was inhibited 60% or more compared with non-treated area.) | 4 (Growth of the stem and leave parts was inhibited 40% or more compared with non-treated area, or growth of the only root part was inhibited 80% or more compared with non-treated area.) | 0 | 0 | 0 | 5 (Growth of the stem and leave parts was inhibited 50% or more compared with non-treated area, or growth of the only root part was inhibited 100% or more compared with non-treated area.) | 0 | 5 (Growth of the stem and leave parts was inhibited 50% or more compared with non-treated area, or growth of the only root part was inhibited 100% or more compared with non-treated area.) | – | – | – | – | – | – | – | –
CCCCCCCCCOn1cccc1C(=O)N(C)C [Compound 9g] | – | 3 (Growth of the stem and leave parts was inhibited 30% or more compared with non-treated area, or growth of the only root part was inhibited 60% or more compared with non-treated area.) | 4 (Growth of the stem and leave parts was inhibited 40% or more compared with non-treated area, or growth of the only root part was inhibited 80% or more compared with non-treated area.) | 0 | 0 | 3 (Growth of the stem and leave parts was inhibited 30% or more compared with non-treated area, or growth of the only root part was inhibited 60% or more compared with non-treated area.) | 3 (Growth of the stem and leave parts was inhibited 30% or more compared with non-treated area, or growth of the only root part was inhibited 60% or more compared with non-treated area.) | 5 (Growth of the stem and leave parts was inhibited 50% or more compared with non-treated area, or growth of the only root part was inhibited 100% or more compared with non-treated area.) | 7 (Growth of the stem and leave parts was inhibited 70% or more compared with non-treated area.) | 3 | – | – | – | – | – | – | –
CCCCCCCCCOn1cccc1C(=O)N1CCOCC1 [Compound 9h] | – | 3 (Growth of the stem and leave parts was inhibited 30% or more compared with non-treated area, or growth of the only root part was inhibited 60% or more compared with non-treated area.) | 6 (Growth of the stem and leave parts was inhibited 60% or more compared with non-treated area.) | 0 | 4 (Growth of the stem and leave parts was inhibited 40% or more compared with non-treated area, or growth of the only root part was inhibited 80% or more compared with non-treated area.) | 3 (Growth of the stem and leave parts was inhibited 30% or more compared with non-treated area, or growth of the only root part was inhibited 60% or more compared with non-treated area.) | 5 (Growth of the stem and leave parts was inhibited 50% or more compared with non-treated area, or growth of the only root part was inhibited 100% or more compared with non-treated area.) | 0 | 6 (Growth of the stem and leave parts was inhibited 60% or more compared with non-treated area.) | 3 | – | – | – | – | – | – | –
CCC(CC)Nc1c([N+](=O)[O-])cc(C)c(C)c1[N+](=O)[O-] [pendimethalin, reference compound] | – | – | – | – | – | – | – | – | – | – | 6 (“6” when a killing weed rate is 69% to 60%) | 6 (“6” when a killing weed rate is 69% to 60%) | 5 (“5” when a killing weed rate is 59% to 50%) | 4 (“4” when a killing weed rate is 49% to 40%) | 6 (“6” when a killing weed rate is 69% to 60%) | 0 (“0” when a killing weed rate is 9% to 0%) | 6 (“6” when a killing weed rate is 69% to 60%)
